EC50 data for four molecules are collected here from paper PMC2692545 (Biochemical pharmacology, 2009).

The target in this assay is C1/C2 + Gsα (VC1:IIC2 plus Gsα-GTPγS) (Canis lupus familiaris; Rattus norvegicus; Bos taurus, UniProt P26769+P30803). The experiment in a line: […]cAMP formation from [α-32P]ATP, stimulation of catalysis. Type of assay: biochemical. Background: cAMP levels reflect the balance of adenylyl cyclase and phosphodiesterase activity.
C1/C2 + Gsα (VC1:IIC2 plus Gsα-GTPγS), sequence (P30803 442-656): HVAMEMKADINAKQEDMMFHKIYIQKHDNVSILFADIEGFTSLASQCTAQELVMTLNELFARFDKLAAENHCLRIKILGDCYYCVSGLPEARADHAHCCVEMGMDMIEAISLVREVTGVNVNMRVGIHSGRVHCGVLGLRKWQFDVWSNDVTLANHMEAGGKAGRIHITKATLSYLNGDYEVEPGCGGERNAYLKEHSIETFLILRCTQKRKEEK
C1/C2 + Gsα (VC1:IIC2 plus Gsα-GTPγS), sequence (P26769 870-1081): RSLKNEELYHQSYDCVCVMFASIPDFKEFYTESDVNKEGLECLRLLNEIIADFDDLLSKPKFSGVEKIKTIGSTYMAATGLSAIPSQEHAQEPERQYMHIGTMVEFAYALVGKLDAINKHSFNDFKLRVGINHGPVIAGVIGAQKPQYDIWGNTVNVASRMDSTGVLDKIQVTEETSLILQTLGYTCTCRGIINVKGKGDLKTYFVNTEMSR
C1/C2 + Gsα (VC1:IIC2 plus Gsα-GTPγS), sequence (P04896 2-394 partner): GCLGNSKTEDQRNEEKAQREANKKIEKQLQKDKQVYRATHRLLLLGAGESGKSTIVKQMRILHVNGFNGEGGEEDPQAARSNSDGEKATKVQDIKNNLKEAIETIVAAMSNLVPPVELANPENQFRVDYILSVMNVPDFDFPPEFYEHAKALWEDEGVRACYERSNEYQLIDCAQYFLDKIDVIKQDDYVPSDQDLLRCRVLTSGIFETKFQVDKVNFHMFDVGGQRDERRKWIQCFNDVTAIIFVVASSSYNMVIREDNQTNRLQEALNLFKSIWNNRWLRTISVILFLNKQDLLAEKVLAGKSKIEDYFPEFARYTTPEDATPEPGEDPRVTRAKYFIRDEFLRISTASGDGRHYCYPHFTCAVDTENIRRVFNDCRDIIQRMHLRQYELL

One may read the EC50 as the concentration that produces a half-maximal response. Turning to `C=C[C@@]1(C)CC(=O)[C@]2(O)[C@@]3(C)[C@@H](O)CCC(C)(C)[C@@H]3[C@H](OC(C)=O)[C@H](O)[C@@]2(C)O1` [6A7DA-FS], the EC50 turned out to be 2.6 ± 1 µM.
For `C=C[C@@]1(C)CC(=O)[C@H]2[C@](C)(O1)[C@@H](OC(C)=O)[C@@H](O)[C@H]1C(C)(C)CC[C@H](O)[C@@]12C` [9d-FS], the EC50 was 19.5 ± 0.7 µM.
The figure for `C=C[C@@]1(C)CC(=O)[C@]2(O)[C@@]3(C)[C@@H](O)CCC(C)(C)[C@@H]3[C@H](O)[C@H](OC(C)=O)[C@@]2(C)O1` [FS] is 7.4 ± 1.2 µM.
With `C=C[C@@]1(C)CC(=O)[C@]2(O)[C@@]3(C)[C@@H](O)CCC(C)(C)[C@@H]3[C@H](O)[C@H](OC(=O)CCCN3CCN(C)CC3)[C@@]2(C)O1` [DMB-FS], the EC50 came to 27.6 ± 7 µM.
